Data on 21 compounds can be found in patent US20050197343A1, “Utilization of heteroarene carboxamide as dopamine-d3 ligands for the treatment of cns diseases” (priority 2002, published 2005).

Where two headings read alike, the source gives them in different places.

In assay [1] the target is α1 receptors. In words: competitive experiment with the α1 selective radio ligand [3H]Prazosin. The settings on record: read-out: Ki values α1 (footnote d); pα1; competitive experiment with [3H]Prazosin.
Assay [2] concerns the target adrenergic receptor subtype α1. In words: radio ligand binding, pig cortex membranes, highly affine binding site on labelling with [3H]Ketanserin. Conditions: read-out: Ki values α1 (footnote c); pα1; derived from the highly affine binding site on labelling with [3H]Ketanserin.
The target of assay [3] is T1, human D4.4 receptor (Homo sapiens, UniProt P21917).
T1 construct: expressed in transfected cells; host or cells: CHO cells (membrane homogenates)
T1 sequence (P21917 1-419): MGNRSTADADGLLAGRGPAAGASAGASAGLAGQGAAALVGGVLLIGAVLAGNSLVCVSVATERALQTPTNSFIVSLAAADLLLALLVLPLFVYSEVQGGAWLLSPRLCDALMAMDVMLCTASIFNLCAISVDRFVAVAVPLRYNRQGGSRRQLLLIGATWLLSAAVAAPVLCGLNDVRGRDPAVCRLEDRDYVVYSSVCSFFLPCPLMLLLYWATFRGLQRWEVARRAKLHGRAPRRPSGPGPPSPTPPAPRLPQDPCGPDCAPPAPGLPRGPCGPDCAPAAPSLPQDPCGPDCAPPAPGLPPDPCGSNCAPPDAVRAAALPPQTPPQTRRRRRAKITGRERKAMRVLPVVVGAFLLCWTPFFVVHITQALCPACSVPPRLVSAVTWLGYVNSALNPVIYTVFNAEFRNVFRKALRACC
In words: radio ligand binding assay, CHO cell membrane homogenates, [3H]Spiperon, D4.4. Conditions: for Ki: hD4.4, average of 2-9 experiments in triplicate. As for the experimental part:
(§1) The biological activities of the compounds of the invention were determined in radio ligand binding assays.

For assay [4], the target named is D3 receptor (Homo sapiens, UniProt P35462). In words: radio ligand binding assay, CHO cell membrane homogenates, [3H]Spiperon, D3. Also on record: expressed in transfected cells; host or cells: CHO cells (membrane homogenates). The method, then:
as §1

Assay [5] deals with T2, human D2long receptor (Homo sapiens, UniProt P14416).
T2 construct: expressed in transfected cells; host or cells: CHO cells (membrane homogenates)
T2 sequence (P14416 whole entry): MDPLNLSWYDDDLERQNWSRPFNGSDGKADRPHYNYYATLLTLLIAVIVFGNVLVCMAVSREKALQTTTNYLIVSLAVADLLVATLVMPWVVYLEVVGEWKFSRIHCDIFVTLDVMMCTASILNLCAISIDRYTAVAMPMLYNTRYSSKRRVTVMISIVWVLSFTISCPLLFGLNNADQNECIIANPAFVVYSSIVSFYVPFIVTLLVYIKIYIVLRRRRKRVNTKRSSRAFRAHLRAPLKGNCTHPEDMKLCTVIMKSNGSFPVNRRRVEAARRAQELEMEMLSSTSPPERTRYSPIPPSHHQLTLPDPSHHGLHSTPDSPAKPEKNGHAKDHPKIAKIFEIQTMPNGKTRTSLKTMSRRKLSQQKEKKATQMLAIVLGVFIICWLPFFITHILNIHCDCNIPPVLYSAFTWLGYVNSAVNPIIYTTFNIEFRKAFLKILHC
In words: radio ligand binding assay, CHO cell membrane homogenates, [3H]Spiperon, D2long. The settings on record: hD2long; average of 2-9 experiments in triplicate. As for the experimental part: as §1

Assay [6] concerns the target T3, human D2short receptor (Homo sapiens, UniProt P14416).
T3 construct: expressed in transfected cells; host or cells: CHO cells (membrane homogenates)
In words: radio ligand binding assay, CHO cell membrane homogenates, [3H]Spiperon, D2short. Conditions: hD2short; average of 2-9 experiments in triplicate. The method, then:
as §1

Assay [7] addresses T4, serotonin receptor 5-HT2 (Sus scrofa, UniProt P50129).
T4 construct: cortex membrane preparations of a pig; from tissue; host or cells: pig cortex
In words: radio ligand binding, pig cortex membrane preparations, [3H]Ketanserin with 10 μM Prazosin. Conditions: p5-HT2; simultaneous incubation with 10 μM of Prazosin.

For assay [8], the target named is T5, serotonin receptor 5-HT1A (Sus scrofa, UniProt A0A4X1UTF5).
T5 sequence (A0A4X1UTF5 1-422): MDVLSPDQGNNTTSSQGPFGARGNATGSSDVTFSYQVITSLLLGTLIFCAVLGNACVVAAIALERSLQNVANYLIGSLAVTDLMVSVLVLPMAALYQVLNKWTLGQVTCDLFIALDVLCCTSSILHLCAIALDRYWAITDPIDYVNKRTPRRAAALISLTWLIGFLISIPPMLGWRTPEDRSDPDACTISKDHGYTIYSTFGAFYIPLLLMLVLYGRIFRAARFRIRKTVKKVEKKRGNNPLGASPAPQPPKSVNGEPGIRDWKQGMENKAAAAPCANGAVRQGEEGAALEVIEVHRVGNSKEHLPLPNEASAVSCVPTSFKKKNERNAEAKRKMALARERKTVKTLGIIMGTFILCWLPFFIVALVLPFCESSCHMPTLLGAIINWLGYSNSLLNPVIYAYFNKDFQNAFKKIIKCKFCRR
In words: radio ligand binding, pig cortex membrane preparations, [3H]8-OH-DPAT.

Setting [9] is: hD3, average of 2-9 experiments in triplicate, read-out: Ki-values D3.
[10] abbreviates: read-out: Ki values 5-HT1A, p5-HT1A, [3H]8-OH-DPAT, average of 2 to 6 experiments.

T4 sequence (P50129 whole entry): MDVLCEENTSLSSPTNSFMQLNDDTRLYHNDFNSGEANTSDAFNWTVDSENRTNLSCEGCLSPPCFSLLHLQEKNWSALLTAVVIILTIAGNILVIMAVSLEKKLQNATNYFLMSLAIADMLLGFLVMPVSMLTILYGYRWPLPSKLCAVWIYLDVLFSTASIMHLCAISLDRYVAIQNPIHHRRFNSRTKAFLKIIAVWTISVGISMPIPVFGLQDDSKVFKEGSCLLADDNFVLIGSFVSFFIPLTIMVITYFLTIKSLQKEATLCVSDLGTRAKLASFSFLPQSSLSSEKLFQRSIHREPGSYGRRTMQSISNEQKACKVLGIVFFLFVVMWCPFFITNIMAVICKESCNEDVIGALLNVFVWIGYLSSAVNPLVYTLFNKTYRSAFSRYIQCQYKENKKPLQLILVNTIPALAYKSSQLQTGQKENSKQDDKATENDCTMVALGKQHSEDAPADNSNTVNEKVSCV
Sequence of D3 receptor (P35462 whole entry): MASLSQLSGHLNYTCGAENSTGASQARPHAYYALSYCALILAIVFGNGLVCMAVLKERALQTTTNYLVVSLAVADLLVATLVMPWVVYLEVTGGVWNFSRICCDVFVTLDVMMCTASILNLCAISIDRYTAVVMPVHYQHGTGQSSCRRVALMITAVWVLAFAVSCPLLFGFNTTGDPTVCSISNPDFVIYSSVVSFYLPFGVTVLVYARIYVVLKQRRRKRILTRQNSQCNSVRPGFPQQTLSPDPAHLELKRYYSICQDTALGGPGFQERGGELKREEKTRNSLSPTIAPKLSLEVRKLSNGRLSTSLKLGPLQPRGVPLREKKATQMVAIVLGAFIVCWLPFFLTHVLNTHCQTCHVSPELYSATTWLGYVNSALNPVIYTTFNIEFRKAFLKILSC
T3 sequence (P14416 1-414 isoform P14416-2): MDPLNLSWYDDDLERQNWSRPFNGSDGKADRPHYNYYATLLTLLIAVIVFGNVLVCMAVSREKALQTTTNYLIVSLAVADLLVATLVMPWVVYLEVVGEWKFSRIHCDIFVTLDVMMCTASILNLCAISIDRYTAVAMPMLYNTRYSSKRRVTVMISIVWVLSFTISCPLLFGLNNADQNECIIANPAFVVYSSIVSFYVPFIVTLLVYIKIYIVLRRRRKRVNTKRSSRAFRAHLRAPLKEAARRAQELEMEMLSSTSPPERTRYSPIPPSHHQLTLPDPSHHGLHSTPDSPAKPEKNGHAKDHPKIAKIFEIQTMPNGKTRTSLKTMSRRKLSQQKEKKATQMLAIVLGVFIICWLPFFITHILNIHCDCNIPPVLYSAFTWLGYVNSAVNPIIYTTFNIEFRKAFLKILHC

In the case of `O=C(NCCCCN1CCN(c2cccc(Cl)c2Cl)CC1)c1cc2ccccc2s1` [Example 2, N-4-(4-(2,3-dichlorophenyl)piperazine-1-yl)butyl-2-benzo[b]thiophenylcarbamide], in assay [1], the Ki (in general, the equilibrium dissociation constant of an inhibitor or competing ligand from its target) was 0.37 µM.

Consider `COc1ccccc1N1CCN(CCCCNC(=O)c2cc3ccccc3o2)CC1` [Example 3, N-4-(4-(2-methoxyphenyl)piperazine-1-yl)butyl-2-benzo[b]furanylcarbarnide], for which the Ki amounted to 0.0033 µM in assay [1], 0.014 µM in assay [2] and 0.03 µM in assay [3].

In the case of `O=C(NCCCCN1CCN(c2cccc(Cl)c2Cl)CC1)c1cc2ccccc2o1` [Example 4, N-4-(4-(2,3-dichlorophenyl)piperazine-1-yl)butyl-2-benzo[b]furanylcarbamide], the Ki in assay [1] is 0.16 µM; in assay [4] (setting [9]), 0.0012 µM.

Consider `COc1ccccc1N1CCN(CCCCNC(=O)c2cc3cc(C#N)ccc3o2)CC1` [Example 7, N-4-(4-(2-methoxyphenyl)piperazine-1-yl)butyl-5-cyano-2-benzo[b]furanylcarbamide], for which the Ki stood at 0.011 µM in assay [1]; 0.0082 µM in assay [2]; 0.0042 µM in assay [4] (setting [9]); 0.13 µM in assay [5]; 0.089 µM in assay [6]; 0.39 µM in assay [7]. In addition, the Ki came out at 0.037 µM in assay [8] and 0.057 µM in assay [3].

As to `COc1ccccc1N1CCN(CCCCNC(=O)c2cc3ccccc3[te]2)CC1` [Example 8, N-4-(4-(2-methoxyphenyl)piperazine-1-yl)butyl-2-benzo[b]tellurophenylcarbamide], the Ki in assay [1] is 0.0035 µM; in assay [4], 0.00072 µM; in assay [7] it was 0.42 µM; in assay [8], 0.069 µM.

For the compound `O=C(NCCCCN1CCN(c2cccc(Cl)c2Cl)CC1)c1cc2ccccc2[nH]1` [Example 10, N-4-(4-(2,3-dichlorophenyl)piperazine-1-yl)butyl-2-indolylcarbamide], the Ki is 0.22 µM in assay [1], 0.00023 to 0.00057 µM in assay [4] (setting [9]) and 0.61 µM in assay [8]. The “D3 affinity (in words)” value in assay [4] is “subnanomolar affinity”.

As to `COc1ccccc1N1CCN(CCCCNC(=O)c2cc3cc(C#N)ccc3[nH]2)CC1` [Example 11, N-4-(4-(2-methoxyphenyl)piperazine-1-yl)butyl-5-cyan-2-indolylcarbamide], the Ki in assay [1] was 0.0059 µM; in assay [2], 0.024 µM; in assay [4] (setting [9]) it was 0.00023 to 0.00057 µM; in assay [7], 0.44 µM; in assay [8], 0.083 µM.

For `COc1ccccc1N1CCN(CCCCNC(=O)c2cc3cc(Br)ccc3[nH]2)CC1` [Example 12, N-4-(4-(2-methoxyphenyl)piperazine-1-yl)butyl-5-bromo-2-indolylcarbamide], the Ki is 0.0064 µM in assay [1], 0.00023 to 0.00057 µM in assay [4] (setting [9]), 0.28 µM in assay [7] and 0.44 µM in assay [8].

Turning to `COc1ccccc1N1CCN(CCCCNC(=O)c2cc3ccc(C#N)cc3[nH]2)CC1` [Example 13, N-4-(4-(2-methoxyphenyl)piperazine-1-yl)butyl-6-cyan-2-indolylcarbamide], the Ki was 0.0043 µM in assay [1], 0.00023 to 0.00057 µM in assay [4] (setting [9]), 0.22 µM in assay [7] and 0.047 µM in assay [8].

Take `O=C(NCCCCN1CCN(c2cccc(Cl)c2Cl)CC1)c1cc2cc(Br)ccc2[nH]1` [Example 14, N-4-(4-(2,3-dichlorophenyl)piperazine-1-yl)butyl-5-brom-2-indolylcarbamide]: the Ki came to 0.5 µM in assay [1], 0.69 µM in assay [7] and 1.6 µM in assay [8] (setting [10]).

As for `N#Cc1ccc2cc(C(=O)NCCCCN3CCN(c4cccc(Cl)c4Cl)CC3)[nH]c2c1` [Example 15, N-4-(4-(2,3-dichlorophenyl)piperazine-1-yl)butyl-6-cyano-2-indolylcarbamide], the Ki in assay [1] was determined as 2 µM; in assay [7] it was 0.32 µM; in assay [8] (setting [10]) it was 0.39 µM.

As for `COc1ccccc1N1CCN(CCCCNC(=O)c2cc3cc(C#N)ccc3s2)CC1` [Example 18, N-4-(4-(2-methoxyphenyl)piperazine-1-yl)butyl-5-cyano-2-benzo[b]thiophenylcarbamide], the values for the Ki in assay [1], in assay [7] and in assay [8] were 0.0029 µM, 0.58 µM and 0.054 µM, respectively.

For the compound `N#Cc1ccc2sc(C(=O)NCCCCN3CCN(c4cccc(Cl)c4Cl)CC3)cc2c1` [Example 19, N-4-(4-(2,3-dichlorophenyl)piperazine-1-yl)butyl-5-cyan-2-benzo[b]thiophenylcarbamide], the values for the Ki in assay [1], in assay [7] and in assay [8] (setting [10]) were 0.23 µM, 0.28 µM and 0.19 µM, respectively.

With `COc1ccccc1N1CCN(CCCCNC(=O)c2cc3ccc(C#N)cc3s2)CC1` [Example 20, N-4-(4-(2-methoxyphenyl)piperazine-1-yl)butyl-6-cyano-2-benzo[b]thiophenylcarbamide], the inhibition constant Ki is 0.0083 µM in assay [1], 0.00023 to 0.00057 µM in assay [4] (setting [9]), 0.66 µM in assay [7] and 0.071 µM in assay [8].

With `N#Cc1ccc2cc(C(=O)NCCCCN3CCN(c4cccc(Cl)c4Cl)CC3)sc2c1` [Example 21, N-4-(4-(2,3-dichlorophenyl)piperazine-1-yl)butyl-6-cyano-2-benzo[b]thiophenylcarbamide], the Ki is 0.045 µM in assay [1], 0.00023 to 0.00057 µM in assay [4] (setting [9]), 0.29 µM in assay [7] and 0.11 µM in assay [8].

As to `COc1ccccc1N1CCN(CCCCNC(=O)c2cc3cc(Br)ccc3s2)CC1` [Example 22, N-4-(4-(2-methoxyphenyl)piperazine-1-yl)butyl-5-brom-2-benzo[b]thiophenylcarbamide], the Ki in assay [1] was found to be 0.0025 µM; in assay [7], 0.76 µM; in assay [8] (setting [10]) it was 0.18 µM.

Consider `O=C(NCCCCN1CCN(c2cccc(Cl)c2Cl)CC1)c1cc2cc(Br)ccc2s1` [Example 23, N-4-(4-(2,3-dichlorophenyl)piperazine-1-yl)butyl-5-brom-2-benzo[b]thiophenylcarbamide], for which the values for the Ki in assay [1], in assay [7] and in assay [8] (setting [10]) were 0.32 µM, 14 µM and 0.43 µM, respectively.

In the case of `COc1ccccc1N1CCN(CCCCNC(=O)c2cc3ccccc3[nH]2)CC1` [Example 24, N-4-(4-(2-methoxyphenyl)piperazine-1-yl)butyl-2-indolylcarbamide], the Ki amounted to 0.0073 µM in assay [1], 0.011 µM in assay [2], 0.42 µM in assay [7] and 0.032 µM in assay [8].

With `N#Cc1ccc2[nH]c(C(=O)NCCCCN3CCN(c4cccc(Cl)c4Cl)CC3)cc2c1` [Example 25, N-4-(4-(2,3-dichlorophenyl)piperazine-1-yl)butyl-5-cyano-2-indolylcarbamide], the Ki in assay [1] is 0.22 µM; in assay [7], 0.22 µM; in assay [8] (setting [10]), 0.19 µM.

As for “N-4-(4-(2, 3-dichlorophenyl)piperazine-1 -yl)butyl-2-ferrocenylcarbamide [Example 17]”, the Ki in assay [1] was 0.073 µM; in assay [4] (setting [9]) it was 0.00047 µM; in assay [7] it was 0.25 µM; in assay [8] (setting [10]), 0.027 µM; in assay [3] it was 0.00063 µM. Also, the “D4 affinity (in words)” value in assay [3] was “high D4 affinity”.

As to “N-4-(4-(2-methoxyphenyl)piperazine-1 -yl)butyl-2-ferrocenylcarbamide [Example 16]”, the Ki in assay [1] turned out to be 0.03 µM; in assay [7] it was 0.5 µM; in assay [8] (setting [10]), 0.0006 µM. Further, the “D4 affinity (in words)” value in assay [3] is recorded as “high D4 affinity”.
